Source: the supplement of paper PMC10307832

Assays:
Experiment in all cases: relative viability (nuclei count vs DMSO), 5 days (fraction); higher = more cells survive
[1] = compound: CN(C)CC1=CC(=CC=C1)N=C(C2=CC=CC=C2)C3=C(NC4=C3C=CC(=C4)C(=O)N(C)C)O + CC(=O)c1c(C)c2cnc(Nc3ccc(N4CCNCC4)cn3)nc2n(C2CCCC2)c1=O [Palbociclib] (partner 0.5 µM)
Procedure, shortened: (§1)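 Dosing by pin tool came one day after lung cancer cell lines were seeded in 1536-well plates, using either one drug or a fixed anchor-drug dose plus five library-drug doses (not always all listed) in √10 steps. After 5 days, nuclei were counted on 4× images. Relative viability is treated-well nuclei count divided by vehicle-well nuclei count, and values are medians of duplicate plates.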

[2] = compound: CN(C)CC1=CC(=CC=C1)N=C(C2=CC=CC=C2)C3=C(NC4=C3C=CC(=C4)C(=O)N(C)C)O + Cc1nc(Nc2ncc(C(=O)Nc3c(C)cccc3Cl)s2)cc(N2CCN(CCO)CC2)n1 [Dasatinib] (partner 0.075 µM)
Procedure, shortened: as §1

[3] = compound: CN(C)CC1=CC(=CC=C1)N=C(C2=CC=CC=C2)C3=C(NC4=C3C=CC(=C4)C(=O)N(C)C)O + Nc1nc2[nH]cc(CCc3ccc(C(=O)N[C@@H](CCC(=O)O)C(=O)O)cc3)c2c(=O)[nH]1 [Pemetrexed] (partner 0.2 µM)
Procedure, shortened: as §1

[4] = compound: CN(C)CC1=CC(=CC=C1)N=C(C2=CC=CC=C2)C3=C(NC4=C3C=CC(=C4)C(=O)N(C)C)O + O=C(CCCCCCC(=O)Nc1ccccc1)NO [Vorinostat] (partner 1 µM)
Procedure, shortened: as §1

Cell Line	relative viability ([1]; first compound 0.08 µM)	relative viability ([1]; first compound 0.253 µM)	relative viability ([1]; first compound 2.53 µM)	relative viability ([1]; first compound 8 µM)	relative viability ([2]; first compound 0.08 µM)	relative viability ([2]; first compound 0.253 µM)	relative viability ([2]; first compound 0.8 µM)	relative viability ([2]; first compound 2.53 µM)	relative viability ([2]; first compound 8 µM)	relative viability ([3]; first compound 0.08 µM)	relative viability ([3]; first compound 0.253 µM)	relative viability ([3]; first compound 2.53 µM)	relative viability ([3]; first compound 8 µM)	relative viability ([4]; first compound 0.08 µM)	relative viability ([4]; first compound 0.253 µM)	relative viability ([4]; first compound 0.8 µM)	relative viability ([4]; first compound 2.53 µM)	relative viability ([4]; first compound 8 µM)	relative viability ([1]; first compound 0.8 µM)	relative viability ([3]; first compound 0.8 µM)
EKVX	0.392	0.385	0.373	0.42	0.523	0.465	0.56	0.535	0.573	0.41	0.362	0.396	0.418	0.778	0.726	0.648	0.858	0.773	–	–
EMC-BAC-2	0.561	0.533	0.494	0.542	0.358	0.388	0.308	0.348	0.318	0.437	0.445	0.435	0.508	0.476	0.548	0.463	0.463	0.653	0.511	0.582
EPLC-272H	0.309	0.35	0.357	0.301	0.419	0.334	0.304	0.382	0.357	0.355	0.345	0.314	0.398	0.426	0.519	0.402	0.49	0.315	0.269	0.284
H3255	0.304	0.331	0.334	0.343	0.342	0.337	0.316	0.381	0.339	0.592	0.52	0.592	0.592	0.826	0.987	–	0.777	0.845	0.336	0.543
HARA	0.242	0.223	0.302	0.236	0.227	0.306	0.231	0.258	0.241	0.214	0.234	0.291	0.228	0.6	0.528	0.433	0.715	0.487	0.247	0.203
HCC-15	0.706	0.724	0.711	0.752	0.613	0.602	0.652	0.643	0.662	0.232	0.22	0.235	0.226	0.875	0.821	0.787	0.868	0.89	0.74	0.208
HCC-44	0.966	1.01	0.923	1	–	–	–	–	–	0.691	0.583	0.598	0.716	1.18	1.09	1.2	1.1	1.29	0.973	0.693
HCC-78	0.504	0.516	0.403	0.52	0.329	0.521	0.353	0.366	0.405	0.639	0.873	0.918	0.859	0.455	0.668	0.379	0.464	0.427	0.501	0.857
HCC-366	0.406	0.364	0.412	0.341	0.71	0.8	0.592	0.502	0.564	0.141	0.17	0.164	0.25	0.471	0.369	0.458	0.299	0.473	0.404	0.265
